Data as given in PubChem BioAssay (NCI).
“And” between values parts separate entries of the source, which are not always exact repeats. Identical values can stand only once.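 Following 48 hours of exposure in 96-well plates, responses at five concentrations were used to interpolate endpoints linearly. The concentration for 50% growth inhibition is given as GI50. TGI denotes the concentration required for complete inhibition of growth.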

Tests used:
Assay in all cases: NCI anticancer screen, dose series, 48 h
[1] = tested on: NCI-H522 lung
[2] = tested on: HCT-15 colon
[3] = tested on: LOX IMVI melanoma
[4] = tested on: SNB-75 CNS
[5] = tested on: BT-549 breast
[6] = tested on: NCI-H23 lung
[7] = tested on: HOP-62 NSCLC
[8] = tested on: KM12 colon
[9] = tested on: SK-MEL-2 melanoma
[10] = tested on: K-562 leukemia

Compound | GI50 [1] | TGI [1] | GI50 [2] | TGI [2] [µM] | GI50 [3] | TGI [3] [µM] | GI50 [4] | TGI [4] | GI50 [5] | TGI [5] | GI50 [6] | TGI [6] | GI50 [7] | TGI [7] | GI50 [8] | TGI [8] [µM] | GI50 [9] | TGI [9] | GI50 [10] | TGI [10] [µM]
Nc1cc(-c2ccc(Cl)cc2)nn1-c1nnc(/C=C/c2ccco2)c(=O)[nH]1 | 8.95 µM | 40.3 µM | 1.38 µM | > 49.1 | 4.82 µM | 37.8 | 12.9 µM | 41.4 µM | 5.62 µM | 55.5 µM | 7.73 µM | 63.5 µM | 6.83 µM | 60.1 µM | 4.05 µM | > 56.6 | 19 µM | > 88.3 µM | 2.98 µM | > 48
CSc1ccc(N(C)c2nc(C)nc3c2CCC3)cc1 | < 0.01 µM | < 0.01 µM | < 0.01 µM | > 100 | < 0.01 µM | 13.7 | < 0.01 µM | 42.1 µM | < 0.01 µM | < 0.01 µM | < 0.01 µM | 33 µM | < 0.01 µM | 21.3 µM | < 0.01 µM | 12.9 | < 0.01 µM | 38.8 µM | < 0.01 µM | > 100
C=C1C(=O)C23C(O)C1CC[C@H]2C12CCCC(C)(COC(C)=O)[C@H]1[C@H](O)[C@]3(O)OC2 (stereo not given in full) | – | 0.902 µM | – | 2.37 | – | 3.17 | – | 4.33 µM | – | 2.86 µM | – | 3.53 µM | – | 8.56 µM | – | 6.07 | – | 3.49 µM | – | 1.07
O=C(O)c1ccccc1C(=O)c1ccc2c(c1)Cc1ccccc1-2 | – | > 100 µM | – | > 100 | – | > 100 | – | > 100 µM | – | > 100 µM | – | > 100 µM | – | > 100 µM | – | > 100 | – | > 100 µM | – | > 100
Cc1cc(C)n(C2=NS(=O)(=O)c3ccccc3N2C)n1 | – | > 100 µM | – | > 100 | – | > 100 | – | – | – | > 100 µM | – | > 100 µM | – | > 100 µM | – | > 100 | – | > 100 µM | – | > 100
CN1c2ccccc2SC2C(c3ccccc3)=NOC21 (stereo not given) | – | 64.1 µM | – | 43.7 | – | – | – | 56.6 µM | – | 68.4 µM | – | 71.7 µM | – | > 100 µM | – | > 100 | – | 73.9 µM | – | > 100
O=C(Cl)C1=C(c2ccccc2)C1c1ccccc1 (stereo not given) | – | > 100 µM | – | > 100 | – | > 100 | – | > 100 µM | – | > 100 µM | – | > 100 µM | – | > 100 µM | – | > 100 | – | > 100 µM | – | > 100
COc1ccc(F)c(F)c1C(=O)c1cnc(NC2CCN(S(C)(=O)=O)CC2)nc1N | 2.38 µM and 1.62 µM | 6.97 µM and 5.86 µM | 0.484 µM and 0.361 µM | > 100 | 0.848 µM and 0.291 µM | > 100 | 1.26 µM and 1.09 µM | 3.62 µM and 2.73 µM | 1.52 µM and 1.02 µM | 5.86 µM and 5.52 µM | 0.814 µM and 0.397 µM | 5.28 µM and 3.3 µM | 0.959 µM and 0.45 µM | > 23.4 µM and 7.93 µM | 0.402 µM and 0.306 µM | > 29.8 | 1.07 µM and 1.15 µM | 2.96 µM and 3.48 µM | 2.05 µM and 1.95 µM | > 100
O=C1c2ccccc2-c2c1c1ccccc1c(=O)n2CCNCCn1c2c(c3ccccc3c1=O)C(=O)c1ccccc1-2 | > 25 µM | > 25 µM | > 25 µM | > 25 | > 25 µM | > 25 | – | – | > 25 µM | > 25 µM | > 25 µM | > 25 µM | > 25 µM | > 25 µM | > 25 µM | > 25 | > 25 µM | > 25 µM | 5.42 µM | 16.2
O=C1/C(=C/c2ccc([N+](=O)[O-])cc2)COc2ccc(O)cc21 | 2.05 µM | 6.05 µM | 2.24 µM | 7.61 | 1.68 µM | 3.23 | > 100 µM | > 100 µM | 18.5 µM | 50.4 µM | 7.83 µM | 36.3 µM | 49.8 µM | > 100 µM | 2.15 µM | 5.25 | 73 µM | > 100 µM | 2.28 µM | > 100
COc1ccc(-c2cnoc2-c2cc(OC)c3c(c2)OCCO3)cc1 | < 0.0141 µM | 0.0842 µM | 0.0258 µM | 28.1 | 0.0632 µM | 22.5 | 0.0195 µM | 34.4 µM | 0.073 µM | 27.8 µM | 0.0599 µM | > 100 µM | 0.0319 µM | 56.6 µM | < 0.0162 µM | 16 | 0.0279 µM | 16.2 µM | < 0.0115 µM | > 100
O=C(c1cccs1)C1NO[N+]([O-])=C1c1cccs1 (stereo not given) | 0.174 µM | 0.336 µM | 3.43 µM | 14.7 | 2.4 µM | 6.5 | 1.54 µM | 3.89 µM | 9.41 µM | 21.2 µM | 2.94 µM | 9.42 µM | 4.77 µM | 11.4 µM | 3.33 µM | 12.1 | 11.2 µM | 24.5 µM | 3.02 µM | > 100
[2H]c1nc(=Nc2cc(NC(=O)C=C)c(N(C)CCN(C)C)cc2OC)[nH]c(-c2cn(C([2H])([2H])[2H])c3ccccc23)c1[2H] | 0.265 µM | 2.24 µM | 1.44 µM | 3.05 | 1.65 µM | 3.17 | 10.8 µM | 24.8 µM | 1.52 µM | 3.25 µM | 3.14 µM | 15.5 µM | 4.25 µM | 20.7 µM | 3.15 µM | 11.5 | 1.73 µM | 3.65 µM | 1.29 µM | 3.78
Cc1cccc(N=Nc2ccc(N=Nc3c(O)ccc4ccccc34)cc2C)c1 | – | 37.6 µM | – | > 100 | – | – | – | 37.8 µM | – | > 100 µM | – | > 100 µM | – | 89.6 µM | – | > 100 | – | > 100 µM | – | > 100
c1cnn2ncc(-c3ccnc(Nc4ccc5c(c4)OCCO5)n3)c2c1 | 0.116 µM | 0.592 µM | 0.0863 µM | > 25 | 0.0392 µM | > 25 | 0.0671 µM | 0.173 µM | 0.0588 µM | 0.2 µM | 0.0692 µM | 0.286 µM | 0.0958 µM | > 25 µM | 0.07 µM | 0.303 | 0.0483 µM | 0.121 µM | 0.285 µM | > 25
